# From ChEMBL document CHEMBL1201862, “PubChem BioAssay data set” (2004)
# Active and inactive are the calls of the source.
# What was measured:
# [1] = biological target: UDP-galactopyranose mutase (Mycobacterium tuberculosis, UniProt P9WIQ1); experiment: Inhibitors of Mycobacterium tuberculosis UDP-galactopyranose mutase (UGM) enzyme Measured in Biochemical System Using Plate Reader - 2105-02_Inhibitor_Dose_CherryPick_Activity. [Related pubchem assays (depositor defined):AID504439]
# [2] = biological target: Keap1/Nrf2 (Homo sapiens, UniProt Q14145); experiment: Keap1-Nrf2 protein-protein interaction inhibitors, dose response, biochemical, fluorescence polarization, cherry-picked samples (AID 588683)
# [3] = system: HeLa; experiment: HeLa cell cytotoxicity, dose response, cytotoxicity control for MITF activator project, CellTiter-Glo luminescence, cherry-pick samples (AID 540259); type: functional, cell-based; conditions: Homo sapiens
# [4] = system: Vero; experiment: cells; type: functional, cell-based; conditions: Chlorocebus sabaeus
# [5] = system: Vero; experiment: cells; type: functional; conditions: Chlorocebus sabaeus
# [6] = cells; conditions: HEK293
# [7] = Luminescence Cell-Based Dose Retest to Confirm Inhibitors of Cancer Stem Cells. [Related pubchem assays (depositor defined):AID2717, AID2721]; type: functional; conditions: Homo sapiens
# [8] = biological target: ORF 73 (Human herpesvirus 8, UniProt O40947); experiment: inhibitors of C-LANA binding to LBS DNA, dose response, biochemical, fluorescence polarization, cherry-picked samples (AID 504725); set-up: species or system Human gammaherpesvirus 8;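 note: fluorescence polarization of a labeled DNA duplex reporting LANA DNA binding; potency is for inhibitors that block LANA binding to the DNA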
# [9] = system: INS1; experiment: beta cell apoptosis inhibitors, cytokine rescue, dose response, luminescence, retest (AID 449756); type: functional, cell-based; conditions: Rattus norvegicus;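 note: cell death triggered by IL-1 beta plus TNF-alpha plus IFN-gamma mixture; protective hits raise ATP signal compared with cytokine alone wells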
# [10] = biological target: T1, Type-1 angiotensin II receptor (Homo sapiens, UniProt P30556); experiment: AT1 receptor antagonists, dose response, selectivity assay for APJ receptor antagonist project, cell-based, uHTS hits (AID 463214); type: functional;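 note: antagonist potency against angiotensin II stimulated AT1 response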
# T1 sequence (P30556 whole entry): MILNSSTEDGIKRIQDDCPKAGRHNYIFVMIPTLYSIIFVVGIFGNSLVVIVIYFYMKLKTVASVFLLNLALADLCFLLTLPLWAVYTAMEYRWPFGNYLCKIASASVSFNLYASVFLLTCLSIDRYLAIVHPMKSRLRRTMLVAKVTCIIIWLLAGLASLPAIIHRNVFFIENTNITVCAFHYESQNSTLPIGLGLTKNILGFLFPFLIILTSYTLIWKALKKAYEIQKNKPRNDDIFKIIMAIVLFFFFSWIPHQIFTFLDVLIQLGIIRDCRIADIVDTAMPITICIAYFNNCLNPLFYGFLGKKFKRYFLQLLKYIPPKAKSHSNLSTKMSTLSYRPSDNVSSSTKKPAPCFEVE
# [11] = inhibitors of intracellular T. cruzi replication, confirmation, NIH3T3 host cells, beta-gal luminescence (AID 2044); type: functional, cell-based;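 note: intracellular parasites grown in NIH/3T3 mouse fibroblasts as host cells; luminescent beta-galactosidase reporter signal from transgenic T. cruzi replicating inside host cells; inhibitors lower the luminescence signal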
# [12] = biological target: Beta-galactosidase (Escherichia coli, UniProt Q8VNN2); experiment: PubChem AID 485352; type: functional
# [13] = biological target: T2, Replicative DNA helicase DnaB (Mycobacterium tuberculosis, UniProt P9WMR3); experiment: DnaB intein splicing inhibitors, dose response, biochemical, cell-free fluorescence (AID 449749); type: functional
# T2 sequence (P9WMR3 whole entry): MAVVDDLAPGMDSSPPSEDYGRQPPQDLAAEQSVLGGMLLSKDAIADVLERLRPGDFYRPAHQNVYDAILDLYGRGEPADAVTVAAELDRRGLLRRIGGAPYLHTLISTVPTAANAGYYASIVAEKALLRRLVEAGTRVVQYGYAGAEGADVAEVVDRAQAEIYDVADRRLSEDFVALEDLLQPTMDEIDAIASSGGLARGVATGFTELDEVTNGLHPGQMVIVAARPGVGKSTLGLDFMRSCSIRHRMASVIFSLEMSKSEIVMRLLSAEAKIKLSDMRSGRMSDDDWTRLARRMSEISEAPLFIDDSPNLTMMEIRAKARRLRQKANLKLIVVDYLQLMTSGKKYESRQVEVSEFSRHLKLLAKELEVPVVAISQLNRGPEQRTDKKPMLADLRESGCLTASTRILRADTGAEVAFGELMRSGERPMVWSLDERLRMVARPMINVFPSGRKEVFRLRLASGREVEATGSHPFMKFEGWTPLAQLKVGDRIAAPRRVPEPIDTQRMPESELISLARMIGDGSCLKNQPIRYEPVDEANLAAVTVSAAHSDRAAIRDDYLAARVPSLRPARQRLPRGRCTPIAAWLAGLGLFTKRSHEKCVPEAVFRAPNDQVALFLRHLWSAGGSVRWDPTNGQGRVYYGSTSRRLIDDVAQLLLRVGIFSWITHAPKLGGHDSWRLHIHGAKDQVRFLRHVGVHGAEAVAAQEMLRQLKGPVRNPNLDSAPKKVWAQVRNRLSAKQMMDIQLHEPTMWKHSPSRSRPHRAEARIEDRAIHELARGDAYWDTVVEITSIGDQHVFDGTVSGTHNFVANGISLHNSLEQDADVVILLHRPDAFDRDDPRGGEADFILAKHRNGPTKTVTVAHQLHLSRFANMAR
# [14] = system: CHO; experiment: cytotoxicity in TLR9-MyD88 CHO cells, dose response, cytotoxicity control for TLR9-MyD88 binding inhibitor project, cell-based, luminescence (AID 588339); type: functional, hamster; conditions: Cricetulus griseus;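 note: CHO cells stably coexpressing TLR9 and MyD88 fusions from primary screen; compound exposure lasted 48 hours before viability readout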
# [15] = biological target: T3, Protein RecA (Mycobacterium tuberculosis, UniProt P9WHJ3); experiment: Fluorescence Cell-Free Homogeneous Dose Retest to Identify Inhibitors of RecA-Intein Splicing Activity. [Related pubchem assays (depositor defined):AID2097, AID2223, AID489010, AID492950]; type: functional
# T3 sequence (P9WHJ3 whole entry): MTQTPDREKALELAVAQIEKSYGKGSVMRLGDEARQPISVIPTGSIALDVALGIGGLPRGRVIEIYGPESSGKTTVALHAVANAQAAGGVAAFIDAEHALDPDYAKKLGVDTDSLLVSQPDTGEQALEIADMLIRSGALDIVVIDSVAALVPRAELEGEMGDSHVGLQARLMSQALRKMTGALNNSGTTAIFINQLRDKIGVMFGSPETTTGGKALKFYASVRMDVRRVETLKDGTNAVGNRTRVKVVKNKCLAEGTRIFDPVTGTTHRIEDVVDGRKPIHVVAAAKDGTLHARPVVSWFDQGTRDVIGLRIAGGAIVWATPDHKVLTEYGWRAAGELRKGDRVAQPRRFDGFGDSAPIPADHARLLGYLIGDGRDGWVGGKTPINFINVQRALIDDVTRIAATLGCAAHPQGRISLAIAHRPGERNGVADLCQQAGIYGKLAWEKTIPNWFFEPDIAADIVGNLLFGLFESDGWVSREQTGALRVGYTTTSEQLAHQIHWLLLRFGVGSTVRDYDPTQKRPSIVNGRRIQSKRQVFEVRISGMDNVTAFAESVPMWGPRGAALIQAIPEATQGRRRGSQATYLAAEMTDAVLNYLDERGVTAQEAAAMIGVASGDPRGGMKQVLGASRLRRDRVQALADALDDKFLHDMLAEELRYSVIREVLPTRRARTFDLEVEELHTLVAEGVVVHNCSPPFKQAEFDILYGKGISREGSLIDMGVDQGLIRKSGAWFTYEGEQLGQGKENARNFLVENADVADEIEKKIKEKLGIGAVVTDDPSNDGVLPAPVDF
# [16] = cytotoxicity toward NIH3T3 fibroblasts, dose response, counter-screen, cell-based, ATP luminescence, mouse fibroblasts (AID 2010); type: functional;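 note: cells exposed to compound for about 90 hours before reading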
# [17] = HepG2 cell cytotoxicity, dose response, cytotoxicity control for Shn3 inhibitor project, CellTiter-Glo, cherry-picked (AID 624134); type: functional, cell-based
# [18] = Shn3 3'UTR reporter inhibitors, dose response, cell-based, Clone20 osteoblasts, firefly luciferase, cherry-picked (AID 624132); type: functional;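 note: firefly luciferase luminescence from reporter carrying the Shn3 3'UTR in osteoblasts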
# [19] = system: HEK293; experiment: inhibitors of LMP1-driven NF-kB reporter, dose response, cell-based, HEK293, luciferase, cherry-pick (AID 588343); type: functional; conditions: Homo sapiens
# [20] = biological target: Beta Lactamase (Pseudomonas aeruginosa, UniProt Q932Y6); experiment: beta-lactamase reporter inhibitor potency, dose response, artefact control for TLR9-MyD88 binding inhibitor project, BLA reporter cells, FRET fluorescence (AID 588341); type: cell-based;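 note: cell based assay in CHO-K1 cells stably expressing beta-lactamase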
# [21] = control 3'UTR Renilla luciferase suppression, dose response, counter-screen for Shn3 inhibitor project, cell-based, Clone20-Shn3RL, cherry-picked (AID 624133); type: functional
# [22] = system: BJ; experiment: cytotoxicity toward Ras-transformed BJeLR fibroblasts, dose response, cell-based, alamar blue fluorescence, cherrypicked samples (AID 2631); type: functional; conditions: Homo sapiens;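 note: confirmatory dose-response assay in RAS-dependent BJ fibroblasts engineered with TERT, LT and ST, with cytotoxicity read by fluorescence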
# [23] = system: BJ; experiment: cytotoxicity toward BJ-TERT-LT-ST fibroblasts, dose response, cell-based, RAS-independent, luminescence (AID 1935); type: functional; conditions: Homo sapiens;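 note: BJ fibroblasts immortalized with TERT plus LT and ST oncogenes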
# [24] = system: BJ; experiment: cells; type: functional, cell-based; conditions: Homo sapiens
# [25] = cytotoxicity toward DRD oncogenic fibroblasts, dose response, cell-based, non-viral oncogenic, luminescence (AID 1934); type: functional; conditions: Homo sapiens
# [26] = system: BJ; experiment: cytotoxicity toward BJ-TERT fibroblasts, dose response, cell-based, RAS-independent, luminescence (AID 1933); type: functional; conditions: Homo sapiens
# [27] = biological target: T4, Mannose-6-phosphate isomerase (Homo sapiens, UniProt P34949); experiment: PMI enzyme inhibitors, confirmation, biochemical, fluorescence intensity (AID 1535)
# T4 sequence (P34949 whole entry): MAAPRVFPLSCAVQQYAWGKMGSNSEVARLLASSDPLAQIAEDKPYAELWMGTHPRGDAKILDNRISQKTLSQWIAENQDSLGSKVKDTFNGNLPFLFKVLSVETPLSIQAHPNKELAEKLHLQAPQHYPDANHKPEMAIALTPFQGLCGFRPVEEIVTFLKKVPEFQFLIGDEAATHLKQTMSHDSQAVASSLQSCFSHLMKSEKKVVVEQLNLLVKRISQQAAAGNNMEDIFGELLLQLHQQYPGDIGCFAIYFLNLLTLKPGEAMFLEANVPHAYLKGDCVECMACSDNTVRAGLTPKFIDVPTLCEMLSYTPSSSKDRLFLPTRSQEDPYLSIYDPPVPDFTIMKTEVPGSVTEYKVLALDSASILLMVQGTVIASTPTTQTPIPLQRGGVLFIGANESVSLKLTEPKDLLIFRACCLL
# [28] = biological target: Phosphomannomutase 2 (Homo sapiens, UniProt O15305); experiment: Counter screen SAR assay for PMM2 inhibitors via a fluorescence intensity assay. [Related pubchem assays (depositor defined):AID1545, AID1574]
# [29] = biological target: T5, Endoribonuclease toxin MazF (Escherichia coli K-12, UniProt P0AE70); experiment: fluorescent RNA oligo signal without MazF, dose response, counter-screen for MazEF activator project, biochemical, fluorescence, single-stranded RNase substrate (AID 588502); type: functional
# T5 sequence (P0AE70 whole entry): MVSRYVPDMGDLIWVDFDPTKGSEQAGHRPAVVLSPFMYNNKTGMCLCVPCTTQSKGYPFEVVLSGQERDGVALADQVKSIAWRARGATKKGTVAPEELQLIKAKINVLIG
# [30] = biological target: T5, Endoribonuclease toxin MazF; experiment: MazF toxin RNase activators, dose response, biochemical, fluorescence, single-stranded RNA substrate, uHTS hits (AID 588481); type: functional
# Chain of Keap1/Nrf2 (Q16236 whole entry): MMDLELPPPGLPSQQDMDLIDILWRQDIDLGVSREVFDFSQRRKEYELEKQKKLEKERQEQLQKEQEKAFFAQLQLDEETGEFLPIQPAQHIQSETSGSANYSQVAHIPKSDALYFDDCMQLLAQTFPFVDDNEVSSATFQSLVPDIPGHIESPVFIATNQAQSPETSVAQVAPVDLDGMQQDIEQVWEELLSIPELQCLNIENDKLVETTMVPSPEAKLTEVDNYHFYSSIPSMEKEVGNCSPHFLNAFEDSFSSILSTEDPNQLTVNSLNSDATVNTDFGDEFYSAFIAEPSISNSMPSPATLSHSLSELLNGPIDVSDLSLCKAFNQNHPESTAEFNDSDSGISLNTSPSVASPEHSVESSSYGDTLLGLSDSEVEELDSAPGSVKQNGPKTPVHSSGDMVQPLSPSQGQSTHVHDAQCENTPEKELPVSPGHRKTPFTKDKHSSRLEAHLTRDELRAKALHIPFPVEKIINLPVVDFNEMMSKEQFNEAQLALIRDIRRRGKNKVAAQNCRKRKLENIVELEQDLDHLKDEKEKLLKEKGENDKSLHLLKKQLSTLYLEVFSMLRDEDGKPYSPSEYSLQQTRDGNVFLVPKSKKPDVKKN
# Chain of Keap1/Nrf2 (Q14145 whole entry): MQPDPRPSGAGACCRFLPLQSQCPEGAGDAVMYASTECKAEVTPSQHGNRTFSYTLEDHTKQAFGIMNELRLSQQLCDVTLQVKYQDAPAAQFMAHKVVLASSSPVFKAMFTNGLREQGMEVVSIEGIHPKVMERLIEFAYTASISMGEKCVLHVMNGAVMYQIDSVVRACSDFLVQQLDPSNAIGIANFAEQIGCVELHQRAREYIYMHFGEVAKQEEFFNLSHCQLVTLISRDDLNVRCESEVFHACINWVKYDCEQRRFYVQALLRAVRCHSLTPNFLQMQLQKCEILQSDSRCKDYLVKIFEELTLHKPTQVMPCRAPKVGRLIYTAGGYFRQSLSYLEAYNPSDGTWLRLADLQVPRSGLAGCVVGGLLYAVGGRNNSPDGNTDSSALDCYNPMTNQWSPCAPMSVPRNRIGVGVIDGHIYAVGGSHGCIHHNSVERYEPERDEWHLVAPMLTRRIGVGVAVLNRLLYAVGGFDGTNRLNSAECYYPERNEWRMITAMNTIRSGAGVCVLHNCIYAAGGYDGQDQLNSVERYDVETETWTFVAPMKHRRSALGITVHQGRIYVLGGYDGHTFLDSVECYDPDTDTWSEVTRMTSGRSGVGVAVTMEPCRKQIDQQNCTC
# Chain of UDP-galactopyranose mutase (P9WIQ1 whole entry): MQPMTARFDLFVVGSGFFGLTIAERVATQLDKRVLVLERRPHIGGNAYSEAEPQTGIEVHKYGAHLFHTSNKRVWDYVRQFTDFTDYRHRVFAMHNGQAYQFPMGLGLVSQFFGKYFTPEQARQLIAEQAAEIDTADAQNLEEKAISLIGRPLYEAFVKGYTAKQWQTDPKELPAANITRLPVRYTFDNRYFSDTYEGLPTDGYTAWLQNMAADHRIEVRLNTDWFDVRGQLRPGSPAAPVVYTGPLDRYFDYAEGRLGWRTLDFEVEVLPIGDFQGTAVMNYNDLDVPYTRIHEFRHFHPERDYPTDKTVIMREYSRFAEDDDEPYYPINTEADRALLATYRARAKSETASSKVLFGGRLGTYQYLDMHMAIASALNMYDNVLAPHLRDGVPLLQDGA
# Chain of Phosphomannomutase 2 (O15305 whole entry): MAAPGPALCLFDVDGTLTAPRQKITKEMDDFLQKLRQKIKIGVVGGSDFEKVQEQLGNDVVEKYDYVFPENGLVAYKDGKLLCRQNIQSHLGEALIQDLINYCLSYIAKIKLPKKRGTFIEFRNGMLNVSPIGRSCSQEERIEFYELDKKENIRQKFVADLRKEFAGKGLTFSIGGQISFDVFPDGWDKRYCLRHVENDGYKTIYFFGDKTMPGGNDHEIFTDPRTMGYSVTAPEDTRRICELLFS
# Chain of Beta-galactosidase (Q8VNN2 whole entry): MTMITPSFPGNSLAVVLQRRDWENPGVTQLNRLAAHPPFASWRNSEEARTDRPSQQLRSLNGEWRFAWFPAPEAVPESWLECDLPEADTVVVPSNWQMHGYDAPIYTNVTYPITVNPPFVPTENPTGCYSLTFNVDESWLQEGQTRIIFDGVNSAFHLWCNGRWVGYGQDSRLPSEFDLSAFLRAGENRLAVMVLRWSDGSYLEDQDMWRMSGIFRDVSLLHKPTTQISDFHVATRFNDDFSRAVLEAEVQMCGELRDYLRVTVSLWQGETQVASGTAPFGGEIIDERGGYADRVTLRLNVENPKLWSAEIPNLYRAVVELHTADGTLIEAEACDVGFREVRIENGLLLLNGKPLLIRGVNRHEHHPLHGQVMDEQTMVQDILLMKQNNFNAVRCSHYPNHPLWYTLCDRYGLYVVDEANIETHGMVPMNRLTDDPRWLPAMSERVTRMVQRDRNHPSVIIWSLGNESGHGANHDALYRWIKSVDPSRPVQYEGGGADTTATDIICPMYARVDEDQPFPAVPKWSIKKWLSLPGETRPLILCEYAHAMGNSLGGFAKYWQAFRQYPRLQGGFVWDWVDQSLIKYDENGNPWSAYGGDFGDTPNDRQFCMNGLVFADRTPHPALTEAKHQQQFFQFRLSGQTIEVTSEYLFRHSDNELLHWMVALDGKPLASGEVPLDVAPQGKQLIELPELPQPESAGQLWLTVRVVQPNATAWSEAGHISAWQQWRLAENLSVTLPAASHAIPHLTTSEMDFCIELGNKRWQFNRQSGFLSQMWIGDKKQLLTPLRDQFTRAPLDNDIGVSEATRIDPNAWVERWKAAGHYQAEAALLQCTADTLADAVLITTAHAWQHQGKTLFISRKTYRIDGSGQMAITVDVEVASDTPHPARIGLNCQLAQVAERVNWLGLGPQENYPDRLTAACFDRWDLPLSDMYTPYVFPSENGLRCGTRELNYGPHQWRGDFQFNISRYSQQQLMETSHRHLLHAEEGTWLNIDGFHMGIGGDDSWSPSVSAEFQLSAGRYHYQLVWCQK
# Chain of Beta Lactamase (Q932Y6 whole entry): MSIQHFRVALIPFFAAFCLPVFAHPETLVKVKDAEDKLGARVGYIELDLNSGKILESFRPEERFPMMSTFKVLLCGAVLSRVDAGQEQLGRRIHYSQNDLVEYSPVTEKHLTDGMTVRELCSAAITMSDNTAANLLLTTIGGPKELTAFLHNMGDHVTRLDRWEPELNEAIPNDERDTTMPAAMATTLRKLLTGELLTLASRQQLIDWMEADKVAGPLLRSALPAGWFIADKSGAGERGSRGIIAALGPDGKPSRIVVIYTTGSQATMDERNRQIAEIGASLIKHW
# Chain of ORF 73 (O40947 whole entry): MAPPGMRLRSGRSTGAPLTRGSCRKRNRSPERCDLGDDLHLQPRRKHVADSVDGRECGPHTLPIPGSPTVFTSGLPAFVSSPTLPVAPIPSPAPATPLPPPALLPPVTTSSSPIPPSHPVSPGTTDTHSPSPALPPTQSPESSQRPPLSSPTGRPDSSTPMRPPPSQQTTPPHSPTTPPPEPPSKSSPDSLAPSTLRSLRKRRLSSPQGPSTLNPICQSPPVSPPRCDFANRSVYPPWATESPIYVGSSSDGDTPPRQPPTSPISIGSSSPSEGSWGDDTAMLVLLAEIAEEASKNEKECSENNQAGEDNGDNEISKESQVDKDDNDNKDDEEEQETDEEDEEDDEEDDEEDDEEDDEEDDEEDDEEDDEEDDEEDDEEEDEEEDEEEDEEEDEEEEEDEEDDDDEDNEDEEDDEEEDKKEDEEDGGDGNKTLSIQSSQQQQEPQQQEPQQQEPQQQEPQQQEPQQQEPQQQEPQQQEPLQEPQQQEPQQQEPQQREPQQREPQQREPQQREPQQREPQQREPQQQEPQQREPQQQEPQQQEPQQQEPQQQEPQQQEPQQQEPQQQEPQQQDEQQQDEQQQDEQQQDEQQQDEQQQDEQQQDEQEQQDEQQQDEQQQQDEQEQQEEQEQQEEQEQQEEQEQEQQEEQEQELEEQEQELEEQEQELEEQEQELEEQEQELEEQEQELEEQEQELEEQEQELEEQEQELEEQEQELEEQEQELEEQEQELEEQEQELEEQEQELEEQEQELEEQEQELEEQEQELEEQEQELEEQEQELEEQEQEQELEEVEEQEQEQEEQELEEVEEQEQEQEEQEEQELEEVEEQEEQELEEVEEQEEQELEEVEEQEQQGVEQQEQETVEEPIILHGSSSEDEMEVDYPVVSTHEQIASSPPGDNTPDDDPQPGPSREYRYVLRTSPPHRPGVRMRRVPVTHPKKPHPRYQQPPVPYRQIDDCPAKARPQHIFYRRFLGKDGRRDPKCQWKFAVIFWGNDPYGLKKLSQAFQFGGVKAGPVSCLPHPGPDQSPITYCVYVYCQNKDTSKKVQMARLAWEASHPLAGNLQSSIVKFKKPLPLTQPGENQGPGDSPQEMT
structure (smiles),measurement,setting,value
COc1ccc(N=Nc2nc3cc(Br)c(Br)cc3n2C)c(OC)c1,AC50,[1],247 µM (active)
same,AC50,[2],> 52 µM (inactive)
Cc1cc(C)n(-c2nnc(NC(C)(C)C)nn2)n1,AC50,[3],62.6 µM (active)
CN(C)CCCNc1ncnc2c1c(-c1ccccc1)cn2-c1ccccc1,IC50,[4],23.9 µM (active)
same,CC50,[5],> 25 µM (active)
CCN(CC)c1ccc2cc(S(=O)(=O)c3ccc(Cl)cc3)c(=O)oc2c1,AC50,[6],35.7 µM (active)
same,AC50,[1],10.8 µM (active)
same,AC50,[7],246 nM (active)
same,AC50,[8],19.1 µM (active)
same,AC50,[2],11.8 µM (active)
CS(=O)(=O)c1ncc(Cl)c(C(=O)Nc2ccc(OC(F)F)cc2)n1,AC50,[9],8.07 µM (active)
same,IC50,[10],7.79 µM (active)
same,EC50,[11],1.52 µM (active)
same,EC50,[12],> 40 µM (inactive)
same,AC50,[13],3.68 µM (active)
same,IC50,[14],2.17 µM (active)
same,EC50,[15],3.72 µM (active)
same,EC50,[16],4.44 µM (active)
same,AC50,[17],22.1 µM (active)
same,AC50,[18],682 nM (active)
same,AC50,[19],7.88 µM (active)
same,IC50,[20],6.65 µM (active)
same,AC50,[21],7.27 µM (active)
CCN1CCN(CCNC(=O)c2ccc(/C=C3/Sc4ccccc4N(Cc4ccccc4C)C3=O)cc2)CC1,EC50,[22],> 133 µM (inconclusive)
same,EC50,[23],> 150 µM (inconclusive)
same,EC50,[24],13.7 µM (active)
same,EC50,[25],9.43 µM (active)
same,EC50,[26],6.6 µM (active)
Clc1ccc(Nc2ccccc2/N=c2\ssnc2Cl)cc1,IC50,[27],9.77 µM (active)
same,IC50,[28],> 100 µM (inactive)
Fc1ccc(/N=c2\ssnc2Cl)cc1,IC50,[27],11.6 µM (active)
same,IC50,[28],> 100 µM (inactive)
O=C(N/N=C/c1cccnc1)c1ccc(NC(=O)C(c2ccccc2)c2ccccc2)cc1,EC50,[22],> 66.7 µM (inactive)
same,AC50,[9],0.578 µM (active)
same,EC50,[29],> 99 µM (inactive)
same,EC50,[23],> 150 µM (not active)
same,EC50,[24],0.949 µM (inconclusive)
same,EC50,[30],40.8 µM (inactive)
same,EC50,[25],> 150 µM (not active)
same,EC50,[26],> 150 µM (not active)
CCN(CC)C(=O)C1CCCc2c1[nH]c1ccc(Cl)cc21 (stereo not drawn),IC50,[4],3.28 µM (active)
same,CC50,[5],> 25 µM (active)
CC1CCN(c2ccc3c(c2)S(=O)(=O)c2ccccc2C3=O)CC1,AC50,[3],39.7 µM (active)
